# Test results taken from US20250066346A1, “SOLID FORMS OF A BENZTHIAZOLE-PIPERAZINYL-OXAZOLE COMPOUND AND METHODS OF USE THEREOF” (Hepagene Therapeutics (HK) Limited, priority 2022, published 2025).
# Counter-ions that a name gives are not always drawn.
# Tests used:
# Assay type in all cases: physicochemical
# [1] = Solid state stability (XRPD for physical stability, HPLC purity for chemical stability); settings: for Purity/initial purity: HPLC; for Form change: XRPD
# Text: All the samples were characterized by XRPD for physical stability and HPLC purity for chemical stability evaluation (Table 16).
# [2] = Kinetic solubility in water and bio-relevant media (SGF, FaSSIF, FeSSIF) at 37° C.; design: key to FC: form change: Yes: form changed; No: form not changed; settings: for pH: filtered supernatant
# Experimental: Agilent 1260 HPLC was utilized and detailed chromatographic conditions are provided in Tables 3 and 4 for purity and solubility test, respectively.
# About 20 mg of free base (form A) HCl salt (form B), and HBr salt (form D) were added to a 5-mL glass vials followed by the addition of 4 mL of the corresponding medium/solvent into each glass vial to form a suspension. The vials were capped and rolled at 37° C. (25 rpm). Samples were removed (1 mL) at 1 h, 4 h, and 24 h and centrifuged (14000 rpm, 2 min, room temperature). The supernatant was filtered through 0.22 μm syringe filter (first few drops of filtrate were discarded) for HPLC solubility and pH tests (Table 15). The residual solids were analyzed by XRPD.
# [3] = Hygroscopicity by dynamic vapor sorption (DVS) at 25° C.
# Experimental: DVS was measured via a SMS (Surface Measurement Systems) DVS Intrinsic. The relative humidity at 25° C. was calibrated against deliquescence point of LiCl, Mg(NO3)2 and KCl.
# [4] = Approximate solubility of Form A in solvents at room temperature (stepwise solvent addition, visual); settings: organic solvent or mixture, thermodynamic from solid
# Experimental: Approximately 2 mg of Form A of Compound I was added into a 3-mL glass vial. At room temperature, the solvents in Table 8 were then added stepwise into the vials until the solids were dissolved visually or a total volume of 2 mL was reached.
# [5] = Form conversion by variable-temperature XRPD (VT-XRPD)
# Experimental: […] 22.
# Based on data above, it would convert to dehydrate state (HCl salt Form C) at low humidity and back to hydrate at high humidity.
# HBr salt Form E was observed after N2 purging HBr salt Form D for 20 min at 30° C. via variable-temperature XRPD (VT-XRPD) shown in FIG. 23.
# Based on data above, it would convert to dehydrate state (HBr salt Form E) at low humidity and back to hydrate at high humidity.
compound,measurement,setting,value
"COc1cc(C(=O)O)cc2sc(N3CCN(Cc4c(-c5c(Cl)cccc5Cl)noc4C4CC4)C[C@H]3C)nc12 [HBr salt Form D, (R)-2-(4-((5-cyclopropyl-3-(2,6-dichlorophenyl)isoxazol-4-yl)methyl)-2-methylpiperazin-1-yl)-4-methoxybenzo[d]thiazole-6-carboxylic acid]",Purity/initial purity,[1]; 25° C./60% RH/1 week,99.9%
same,Form change,[1]; 25° C./60% RH/1 week,No
same,Purity/initial purity,[1]; 40° C./75% RH/1 week,99.9%
same,Form change,[1]; 40° C./75% RH/1 week,No
same,HPLC purity after storage (in words),[1]; 80° C. for 1 day,decreased
same,Purity/initial purity,[1]; 80° C./1 day,99.5%
same,Form change,[1]; 80° C./1 day,No
same,form change (in words),[1]; all test conditions,no form change was observed
same,solubility in FaSSIF and FeSSIF (in words),[2]; FaSSIF and FeSSIF,significant solubility improvement
same,FC: form change,"[2]; FaSSIF, 1 hr",No
same,S: solubility,"[2]; FaSSIF, 1 hr",320 µg/mL
same,pH,"[2]; FaSSIF, 1 hr",6.3
same,FC: form change,"[2]; FaSSIF, 4 hrs",No
same,S: solubility,"[2]; FaSSIF, 4 hrs",460 µg/mL
same,pH,"[2]; FaSSIF, 4 hrs",6.3
same,FC: form change,"[2]; FaSSIF, 24 hrs",No
same,S: solubility,"[2]; FaSSIF, 24 hrs",640 µg/mL
same,pH,"[2]; FaSSIF, 24 hrs",6.3
same,FC: form change,"[2]; FeSSIF, 1 hr",No
same,S: solubility,"[2]; FeSSIF, 1 hr",660 µg/mL
same,pH,"[2]; FeSSIF, 1 hr",5.1
same,FC: form change,"[2]; FeSSIF, 4 hrs",No
same,S: solubility,"[2]; FeSSIF, 4 hrs",710 µg/mL
same,pH,"[2]; FeSSIF, 4 hrs",5.1
same,FC: form change,"[2]; FeSSIF, 24 hrs",No
same,S: solubility,"[2]; FeSSIF, 24 hrs",780 µg/mL
same,pH,"[2]; FeSSIF, 24 hrs",5.0
same,FC: form change,"[2]; H2O, 1 hr",No
same,S: solubility,"[2]; H2O, 1 hr",0.6 µg/mL
same,pH,"[2]; H2O, 1 hr",3.0
same,FC: form change,"[2]; H2O, 4 hrs",No
same,S: solubility,"[2]; H2O, 4 hrs",0.7 µg/mL
same,pH,"[2]; H2O, 4 hrs",3.0
same,FC: form change,"[2]; H2O, 24 hrs",No
same,S: solubility,"[2]; H2O, 24 hrs",0.6 µg/mL
same,pH,"[2]; H2O, 24 hrs",3.0
same,FC: form change,"[2]; SGF, 1 hr",No
same,S: solubility,"[2]; SGF, 1 hr",31 µg/mL
same,pH,"[2]; SGF, 1 hr",1.9
same,FC: form change,"[2]; SGF, 4 hrs",No
same,S: solubility,"[2]; SGF, 4 hrs",30 µg/mL
same,pH,"[2]; SGF, 4 hrs",1.9
same,FC: form change,"[2]; SGF, 24 hrs",Yes
same,S: solubility,"[2]; SGF, 24 hrs",43 µg/mL
same,pH,"[2]; SGF, 24 hrs",1.7
same,"solubility in SGF, FaSSIF, and FeSSIF compared with free base (form A) and HCl salt (form B)","[2]; SGF, FaSSIF, FeSSIF",improved solubility
same,"solubility in water, ranking among form A, form B, form D",[2]; water,lowest solubility
same,water uptake,"[3]; in the range of 0% RH to 20% RH, platform between 20% RH and 80% RH",2.6%
"COc1cc(C(=O)O)cc2sc(N3CCN(Cc4c(-c5c(Cl)cccc5Cl)noc4C4CC4)C[C@H]3C)nc12 [Form A, (R)-2-(4-((5-cyclopropyl-3-(2,6-dichlorophenyl)isoxazol-4-yl)methyl)-2-methylpiperazin-1-yl)-4-methoxybenzo[d]thiazole-6-carboxylic acid]",Purity/initial purity,[1]; 25° C./60% RH/1 week,100.0%
same,Form change,[1]; 25° C./60% RH/1 week,No
same,Purity/initial purity,[1]; 40° C./75% RH/1 week,99.9%
same,Form change,[1]; 40° C./75% RH/1 week,No
same,"solid state stability (overall, in words)","[1]; 80° C./1 day, 25° C./60% RH/1 week, 40° C./75% RH/1 week",good solid state stability
same,Purity/initial purity,[1]; 80° C./1 day,99.8%
same,Form change,[1]; 80° C./1 day,No
same,FC: form change,"[2]; FaSSIF, 1 hr",No
same,S: solubility,"[2]; FaSSIF, 1 hr",16 µg/mL
same,pH,"[2]; FaSSIF, 1 hr",6.4
same,FC: form change,"[2]; FaSSIF, 4 hrs",No
same,S: solubility,"[2]; FaSSIF, 4 hrs",17 µg/mL
same,pH,"[2]; FaSSIF, 4 hrs",6.5
same,FC: form change,"[2]; FaSSIF, 24 hrs",No
same,S: solubility,"[2]; FaSSIF, 24 hrs",22 µg/mL
same,pH,"[2]; FaSSIF, 24 hrs",6.4
same,FC: form change,"[2]; FeSSIF, 1 hr",No
same,S: solubility,"[2]; FeSSIF, 1 hr",51 µg/mL
same,pH,"[2]; FeSSIF, 1 hr",5.0
same,FC: form change,"[2]; FeSSIF, 4 hrs",No
same,S: solubility,"[2]; FeSSIF, 4 hrs",56 µg/mL
same,pH,"[2]; FeSSIF, 4 hrs",5.1
same,FC: form change,"[2]; FeSSIF, 24 hrs",No
same,S: solubility,"[2]; FeSSIF, 24 hrs",56 µg/mL
same,pH,"[2]; FeSSIF, 24 hrs",5.1
same,FC: form change,"[2]; H2O, 1 hr",No
same,S: solubility,"[2]; H2O, 1 hr",3 µg/mL
same,pH,"[2]; H2O, 1 hr",6.2
same,FC: form change,"[2]; H2O, 4 hrs",No
same,S: solubility,"[2]; H2O, 4 hrs",2.3 µg/mL
same,pH,"[2]; H2O, 4 hrs",6.3
same,FC: form change,"[2]; H2O, 24 hrs",No
same,S: solubility,"[2]; H2O, 24 hrs",4.6 µg/mL
same,pH,"[2]; H2O, 24 hrs",6.4
same,FC: form change,"[2]; SGF, 1 hr",No
same,S: solubility,"[2]; SGF, 1 hr",20 µg/mL
same,pH,"[2]; SGF, 1 hr",2.1
same,FC: form change,"[2]; SGF, 4 hrs",No
same,S: solubility,"[2]; SGF, 4 hrs",18 µg/mL
same,pH,"[2]; SGF, 4 hrs",1.8
same,FC: form change,"[2]; SGF, 24 hrs",No
same,S: solubility,"[2]; SGF, 24 hrs",17 µg/mL
same,pH,"[2]; SGF, 24 hrs",2.0
same,solubility,"[2]; water, 37 °C, thermodynamic from solid, text summary of Table 15",< 7 µg/mL
same,hygroscopicity (in words),[3]; DVS,non-hygroscopic
same,water uptake,[3]; at 80% RH,0.15%
same,solubility,[4]; 2-MeTHF,> 40000 µg/mL
same,solubility,[4]; ACN,4800 to 9500 µg/mL
same,solubility,[4]; Acetone,> 42000 µg/mL
same,solubility,[4]; CPME,11500 to 23000 µg/mL
same,solubility,[4]; CPME/n-heptane (2:1),2300 to 4600 µg/mL
same,solubility,[4]; EtOAc,10000 to 20000 µg/mL
same,solubility,[4]; IPAc,3800 to 6300 µg/mL
same,solubility,[4]; MIBK,10000 to 20000 µg/mL
same,solubility,[4]; MIBK/n-heptane (2:1),4200 to 7000 µg/mL
same,solubility,[4]; MeOH,10500 to 21000 µg/mL
same,solubility,[4]; MeOH/H2O (9:1),5300 to 10500 µg/mL
same,solubility,[4]; THF,> 40000 µg/mL
same,solubility,[4]; THF/n-heptane (2:1),> 38000 µg/mL
"COc1cc(C(=O)O)cc2sc(N3CCN(Cc4c(-c5c(Cl)cccc5Cl)noc4C4CC4)C[C@H]3C)nc12 [Form E, (R)-2-(4-((5-cyclopropyl-3-(2,6-dichlorophenyl)isoxazol-4-yl)methyl)-2-methylpiperazin-1-yl)-4-methoxybenzo[d]thiazole-6-carboxylic acid]",form after exposing to ambient conditions,[5]; ambient conditions for about 10 min,HBr salt Form D was re-obtained
same,form change after heating to 120° C. and cooling to 30° C.,"[5]; with N2 protection, VT-XRPD",no form change occurred
